Assay results: publication PMC11547840, “The Intestinal Barrier Protective Effect of Indole Aldehyde Derivatives on Acute Toxoplasma gondii Infection” (Molecules, 2024)

How the values were obtained:
[1] = Small intestine histology and pathology scoring of T. gondii-infected mice; format: in vivo; details: 100 mg/kg oral once a day for 6 days
Excerpt: (§1) For the in vivo study, KM female mice were divided into groups consisting of six animals each and then intraperitoneally injected with 2 × 10^3 tachyzoites. […] On the last day, heart blood samples were collected after anesthesia to separate the serum, and after mice were sacrificed by cervical dislocation, mice were dissected to obtain organs and tissues. The tachyzoites were harvested from mice peritoneal cavities to determine the level of tachyzoite proliferation. The peritoneal fluid was collected twice; the first time, it was centrifuged at 500 rpm for 10 min, then the supernatant was centrifuged at 2500 rpm for 20 min, discarded, and the worm precipitate was collected at the bottom, and mixed with an appropriate amount of physiological saline. A total of 10 μL of T. gondii suspension was mixed with 10 μL of 4% Trypan blue staining solution in a 1.5 mL centrifuge tube.
The histology research includes apparent pathological change score, H&E staining and histopathological scores of tissue, as shown in Table 4 and Table 5. In detail, the obtained small intestine tissues were fixed in formalin solution and embedded in paraffin wax after gradual dehydration with different concentrations of ethanol. The paraffin fast was sectioned to a thickness of 5 μm, rehydrated and stained with hematoxylin and eosin, respectively, and finally permeabilized with xylene and sealed with neutral gum. A light microscope was used to observe and collect pictures, and the degree of damage to the small intestinal tissues was assessed according to Chiu’s six-grade scale.

T. gondii [2] = experiment: Giemsa staining: cell infection rate and intracellular tachyzoites in IEC-6 cells; format: cell-based, Toxoplasma gondii; details: IEC-6 cells infected 3 h, drug 12 h at the IC50 value of the cells
Method: (§2) Anti-T. gondii activity and cytotoxicity of indole derivatives in vitro were evaluated by MTT assay (Solarbio, Beijing, China) using a slightly modified version of the procedure of Shang et al.. IEC-6 cells were seeded onto the 96-well plates (2 × 10^3/well) for 24 h to obtain the full monolayer, and then the host cells were infected with T. gondii (parasite: cell = 3:1) in complete medium. After 24 h, cells were washed to remove any extra parasites and then incubated with different concentrations (20, 200, 500 and 1000 μm) of […]. […] After 24 h of treatment, MTT solution was added directly to the culture wells and then incubated for 4 h at 37 °C. The optical absorbance was measured at a wavelength of 548 nm using a microplate reader (SpectraMax M2, Molecular Devices, Sunnyvale, CA, USA). Giemsa staining was used to observe the changes in cell morphology and the proliferation of T. gondii-infected cells. IEC-6 (1 × 10^5 cells/well) was inoculated into 24-well plates containing round coverslip, and after the cells were attached to the wall, T. gondii (3 × 10^5 cells/well) was added to infect the cells for 3 h. After the culture medium was discarded, PBS was added to remove the uninvaded tachyzoites. […] After discarding the supernatant, the cells were washed with PBS and completely aspirated, and then fixed by adding 0.5 mL of methanol for 3 min. Giemsa staining solution was added and shaken slightly to make the staining uniform. Coverslips were rinsed with distilled water to replace the staining solution, and finally, the slices were sealed with neutral gum and air-dried.

IEC-6 cells = experiment: MTT cytotoxicity assay in IEC-6 cells; format: cell-based; details: MTT; concentration required to reduce IEC-6 cell growth by 50%; 24 h treatment; read-out: IC50 in IEC-6 Cells
Method: as §2

[3] = tested on: small intestine of mice with T. gondii infection; experiment: Small intestine and serum biochemical parameters (GSH, MDA, NO, DAO) of T. gondii-infected mice; format: in vivo; details: 100 mg/kg oral once a day for 6 days
Excerpt: as §1
The GSH was measured according to the method in [58]. The intestine homogenate was mixed with half volume trichloroacetic acid (20%, w/v) and centrifuged at 4000 rpm for 10 min. Then, phosphate buffer (phosphate 0.3 mol/L, pH 7.5) and 5,5-dithio-bis-(2-nitrobenzoic acid) (0.04%, w/v) were added to the separated supernatant and mixed thoroughly. After 5 min at room temperature, the absorbance was measured at 412 nm.
MDA was measured by the standard method with minor modifications. The small intestine homogenate supernatant was mixed with thiobarbituric acid (0.5%, w/v) and heated in boiling water bath for 1 h, then cooled quickly and centrifuged at 6000 rpm for 10 min; the absorbance of pink colored supernatant was measured at 532 nm. Tetraethoxypropane replaced the intestine homogenate in the standard sample.
The Greiss method was used to determine the NO content in small intestine tissues and cells. The above small intestine tissue homogenate or IEC-6 cell supernatant was centrifuged at 4 °C and 1500 rpm for 15 min, and the absorbance was measured at 540 nm by adding equal amounts of Griess A and B reagents to the supernatant. The standard used in the NO standard curve was sodium nitrite, and the NO content in the samples was calculated by substituting the absorbance values of the samples into the regression equation of the standard curve.
The DAO evaluation experimental method of Xin Y et al. was adopted, in which mouse heart blood was taken from a 1.5 mL centrifuge tube and centrifuged at 4 °C and 3000× g for 10 min, and the upper layer of serum was taken for measurement. Another 1.5 mL tube was taken and 600 μL of phosphate buffer, 20 μL of horseradish peroxidase, 20 μL of dianisidine dihydrochloride hydrochloride, and 20 μL of 1,5-pentanediamine hydrochloride were added. After that, 100 μL of serum samples to be tested was added, mixed well and heated at 37 °C for 18 h. The absorbance was measured at 436 nm. […]. A total of 100 μL of distilled water was used in the blank tube instead of serum, and the standard used in the standard curve was diamine oxidase. The absorbance value of the experimental samples was substituted into the regression equation of the standard curve to calculate the content of DAO in the serum samples.

T. gondii [4] = experiment: MTT anti-T. gondii activity in T. gondii-infected IEC-6 cells; format: cell-based, Toxoplasma gondii; details: MTT; concentration required to reduce T. gondii-infected IEC-6 cell growth by 50%; 24 h treatment; read-out: IC50 in T. gondii
Method: as §2

T. gondii [5] = experiment: In vivo anti-T. gondii activity, peritoneal tachyzoite count by Trypan Blue; set-up: species or system Toxoplasma gondii; details: peritoneal cavity of KM female mice, i.p. 2 × 10^3 tachyzoites; 100 mg/kg oral once a day for 6 days; Toxo 12.28 ± 0.39
Excerpt: as §1

[6] = tested on: mice with T. gondii infection; experiment: Survival rate of mice with T. gondii infection; format: in vivo; details: acute infection; Toxo group died from day seven
Method: All data were expressed as mean ± standard deviation (S.D.) in triplicate. Statistical analyses and graphs were performed using SPSS 16.0 software (SPSS Inc., Chicago, IL, USA) and GraphPad Prism 5.0 (GraphPad Software Inc., San Diego, CA, USA). The method of Kaplan and Meier was used to compare the survival rates of the studied groups. A value of p < 0.05 was considered statistically significant.

Q: With Spiramycin [Spy, reference compound] as the substance, how does the “intestinal barrier damage induced by T. gondii infection (histology, H&E)” value [1] read?
A: showed no abnormalities in the small intestinal tissues

Q: And the cell infection rate (T. gondii [2]; Toxo group 49.2%)?
A: 27.7%

Q: What about the “number of intracellular tachyzoites” value (T. gondii [2]; Toxo group 254) of the same substance?
A: 173

Q: And the IC50 (IEC-6 cells)?
A: 246 ± 5.9 µM

Q: And the “MDA level in small intestine tissue” value [3]?
A: effective inhibition of the MDA increase

Q: And the IC50 (T. gondii [4])?
A: 219 ± 6 µM

Q: What about the “Number of Tachyzoites” value (T. gondii [5]) of the same substance?
A: 9.22 ± 1.73 ×10^6

Q: What about the “survival of mice with T. gondii infection” value [6] of the same substance?
A: extended the survival time
